The text below walks through data of PMC5556019, “Targeting Apolipoprotein E/Amyloid β Binding by Peptoid CPO_Aβ17-21 P Ameliorates Alzheimer’s Disease Related Pathology and Cognitive Decline” (Scientific Reports, 2017).

Data set [1] relates to APP/PS1 Tg mice. In words: Astrocytosis and microgliosis by GFAP, CD11b and Iba1 immunoreactivity. It counts as in vivo, mouse. The conditions noted are these: semi-quantitative rating 0-4, versus vehicle. As to the method: (§1) The effect of CPO_Aβ17-21 P on Aβ deposition was tested in APP/PS1 Tg mice with plaque pathology. This AD mouse model develops plaque pathology from the age of 3 months. Animals were divided into two groups and received intraperitoneally (i.p.) injections of 0.2 mg of CPO_ Aβ17–21 P per mouse in sterile saline (n = 11, 5 male, 6 female) or saline alone (n = 10, 5 male, 5 female) as a control twice weekly for 4 months, beginning at age 3 months. During the treatment, veterinary staff monitored animals for any signs of toxicity, such as changes in body weight, physical appearance, and altered behavior. Animals were sacrificed a week after administration of the last treatment dose and behavioral testing. All mouse care and experimental procedures were compliant with guidelines of animal experimentation and were approved by the Institutional Animal Care and Use Committee at the New York University School of Medicine.
Mice were anesthetized with sodium pentobarbital (150 mg/kg, i.p.) and blood was collected via cardiac puncture and plasma was separated by centrifugation. Animals were perfused transaortically. The brains and internal organs were collected and cut into halves, one half immersion-fixed in periodate-lysine paraformaldehyde (PLP) for histopathological analysis, and another half snap-frozen for biochemical studies as previously described. Serial coronal brain sections (40 μm) were cut evenly spaced every 400 μm μm along the entire rostro-caudal brain axis and stained for immunohistochemical analysis with: (1) a mixture of anti-Aβ monoclonal antibodies 6E10/4G8 (1 :2000) (Covance, Princeton, NJ), (2) polyclonal anti-glial fibrillary acidic protein (GFAP) antibody (1:1000) (Dako, Carpinteria, CA), (3) polyclonal anti-Iba1 antibody (1:1000) (Wako Chemicals, Richmond, VA) and (4) monoclonal anti-CD11b (1: 500) (Serotec, Raleigh, NC). To measure treated mice brain total amyloid burden change, two different anti-Aβ monoclonal antibodies with distinct epitopes 6E10 (epitope Aβ1–16) and 4G8 (epitope Aβ17–24) were used[38]. To examine brain inflammation levels associated with treatment, we assessed the degree of astrocytosis with GFAP immunoreactivity and the degree of microgliosis with Iba1 and CD11b immunoreactivity as previously published, [37], [39], [40]. GFAP is a component of the glial intermediate filaments that form part of the cytoskeleton and is found predominantly in astrocytes. CD11b is a protein subunit that forms integrin alpha-M beta-2 (αMβ2) molecule, also known as MAC-1 or complement receptor 3 (CR3). CD11b monoclonal antibodies are commonly used for detection of microglial activation at the earliest stages of plaque development. In addition, Iba1 (ionized calcium binding adaptor molecule) antibody was used to label the entire microglia population including activated and resting microglia, a marker for detecting generic microglia, [43]. Immunohistochemistry was performed on free floating coronal brain sections. Details of the procedure and techniques were described previously, [37], [39], [40]. […] Human Alzheimer disease patients brain sections were used for positive control immunostaining, sequential mouse brain sections with omission of the primary antibody were used for negative immunostaining controls.
The assessment of astrocytosis and microgliosis were based on a semi-quantitative analysis, using methods we have previously published by a rater blinded to the treatment status of the mice[19], [37], [39], [40]. Prior to analysis, brains were microscopically examined and rated on a scale from 0–4, in increments of 0.5, depending on the degree of pathology and/or the activation stage of the glial cells. All stained cortical and hippocampal sections were analyzed at 10x magnification. Approximately 8 cortical sections and 6 hippocampal sections were analyzed per animal. […]

The subject of data set [2] is APP/PS1 Tg mice. Put plainly: Brain Aβ and oligomeric Aβ levels by ELISA and western blot. The data set is classed as in vivo, mouse. The protocol:
as §1
Brains were weighed and homogenized (10% w/v) in tissue homogenization buffer (20 mM Tris base, pH 7.4, 250 mM sucrose, 1 mM EDTA, 1 mM EGTA) with […] phenylmethylsulphonyl fluoride, complete protease inhibitor cocktail and PhosSTOP phosphatase inhibitor cocktail (Roche, Indianapolis, IN, USA) added immediately before homogenization. The extraction of soluble Aβ and total Aβ was according to the method we have published previously, [44]. Brain homogenates were mixed with an equal volume of cold 0.4% diethylamine (DEA)/100 mM NaCl, and subsequently centrifuged at 100,000 × g for 1 hr at 4 °C. The supernatant was neutralized with 1/10 volume of 0.5 M Tris, pH 6.8, flash-frozen on dry ice and stored at −80 °C until used for ELISA analysis as soluble Aβ fraction. […] Soluble and total Aβ levels in the brain were measured by sandwich ELISA which used 6E10 monoclonal antibody as a capture antibody and two detection polyclonal antibodies R162 and R165 specific for Aβ40 and Aβ42, respectively. […]
Oligomeric Aβ (o-Aβ) levels were determined with the Biosensis Oligomeric Amyloid-Beta ELISA kit (Biosensis, Thebarton, South Australia) following the manufacturer’s instructions. In brief, the unknown concentrations of o-Aβ in samples were measured against a standard containing different concentrations of o-Aβ. […] The TMB reaction was stopped and the absorbance of each well was read at 450 nm. The standards provided a linear curve and the best-fit line determined by linear regression were used to calculate the concentration of Aβ oligomers in the samples
Brain homogenates were centrifuged at 100,000 × g for 1 hr at 4 °C. The supernatants were collected and the total protein concentrations were determined by the bicinchoninic acid assay (BCA; Pierce, Rockford, IL). […]
For orientation: ELISA stands for enzyme-linked immunosorbent assay.

For data set [3], the system named is APP/PS1 Tg mice. In words: Plasma total cholesterol level. The conditions noted are these: 0.2 mg per mouse i.p. twice weekly for 4 months; p > 0.05. It counts as in vivo. The protocol: as §1
Plasma cholesterol level was measured by using a Cholesterol E kit (Wako Diagnostics, Richmond, VA)[45]. The Cholesterol E is an enzymatic colorimetric method for the quantitative determination of total cholesterol in the blood.

Numbered stars: 1 amine (or outer) side, 2 acyl side, 3 side chain; on linkers, the order of the positions; unused ones are H or OH. Bridge positions count the residues as written; N and C are the ends. Square brackets hold non-standard residues; d marks the D form. Peptide text beside a SMILES is read from it. ξ: configuration not given here. N(CH2CH2CO)Gly = O=C(CN(CCC(=O)[*:3])[*:1])[*:2]; Nphe = O=C(O)CNCc1ccccc1; Nleu = CC(C)CNCC(=O)O; ξP = O=C(O)C1CCCN1; Sar = CNCC(=O)O

For `CC(C)CN1CC(=O)N2CCCC2C(=O)N(Cc2ccccc2)CC(=O)N(Cc2ccccc2)CC(=O)N(C)CC(=O)N(CC(N)=O)CCC1=O` (centres unmarked) [CPO_Aβ17-21 P] ([Nleu][ξP][Nphe][Nphe][Sar][N(CH2CH2CO)Gly]-NH2; lactam N-6), in data set [1], the “cortical astrogliosis (GFAP immunoreactivity)” value was “no significant effect”, the “cortical microgliosis (CD11b immunoreactivity)” value is reported as “decreased”, the “cortical microgliosis (Iba1 immunoreactivity)” value is given as “reduced” and the “hippocampal astrogliosis (GFAP immunoreactivity)” value is recorded as “decreased”. Also, in data set [1], the “hippocampal microgliosis (CD11b immunoreactivity)” value is “no significant effect” and the “hippocampal microgliosis (Iba1 immunoreactivity)” value is “no significant effect”. Besides, in data set [2] (ELISA, p < 0.0001 versus vehicle), the “Aβ42 in the insoluble (formic acid) brain fraction” value is reported as “Reduction”. The “Aβ40 in the insoluble (formic acid) brain fraction” value in data set [2] (ELISA, p < 0.001 versus vehicle) is “Reduction”. Further, the “Aβ oligomeric species by western blot” value in data set [2] (anti-amyloid antibody 4G8, brain homogenates, p < 0.05 versus vehicle) is recorded as “Reduction”. Besides, the “Aβ oligomeric species by ELISA” value in data set [2] (brain homogenates, p < 0.05 versus vehicle) is “Reduction”. For the same compound, the “plasma total cholesterol level, treated versus vehicle” value in data set [3] is listed as “no significant difference”.
